# Measured values: patent publication US5942494A, “Stimulation of gene expression and synthesis of heat shock protein 72/73 (HSP 70)” (The Trustees of Columbia University in the City of New York, priority 1996, dated 1999)
# Square brackets hold non-standard residues; d marks the D form. Peptide text beside a SMILES is read from it. Nle = CCCC[C@H](N)C(=O)O
# Experiments:
# Hsp60 = assay: Immunoprecipitation of Hsp60 from radiolabeled HepG2 cells; assay type: cell-based, human; conditions: HepG2, ALLN 4 hours
# Method: (§1) FIGS. 7A-7B: Effects of ALLN on the biosynthesis of other members of Hsp family and related proteins. HepG2 cells were pre-treated and radiolabeled with or without ALLN for 4 hours as described in FIG. 1. Cell lysates were used for SDS-PAGE (A), or for immunoprecipitation with anti-Hsp25, -Hsp27, -Hsp60, -Hsp70, -Hsp86, -Hsp90, -Hsp104, -Bip, or -albumin antibodies respectively (1 μg/ml) (B). Because the anti-Hsp25, -Hsp27, -Hsp60 and Hsp90 antibodies are from a rat source, rabbit anti-rat IgG antibody was added after the first incubation, and the incubation was extended for another 1 hour at 4° C. before collection with protein A-Sepharose.Immunoprecipitates were loaded for SDS-PAGE and aliquoted for scintillation counting and plotting. Each value was presented as mean ±S.D. from three individual culture dishes.
# (§2) HepG2 cells were preincubated for 4 hours in serum-free MEM and then radiolabeled with ^3 H-Leucine (150 μCi/ml) in a serum-free, leucine-free medium. […] Cell lysates containing equal amounts of trichloroacetic acid (TCA)-insoluble radioactivity were used for immunoprecipitations by incubating with individual monoclonal antibody (1 μg/ml) for 2.5 hours at 4° C. […]
# Hsp70 = Hsp70 level in human microvascular endothelial cell line; assay type: cell-based; conditions: ALLN 40 μg/ml, 4 hours, 30 min. labeling
# Method: ALLN induces Hsp70 protein levels in HepG2 cells in a dose-dependent manner. The effect of ALLN on the protein levels of Hsp70 was analysed by denaturing immunoprecipitation of extracts of [^3 H]-leucine radiolabeled HepG2 cells which had been pre-treated with ALLN for 4 hours at different doses. Denaturing immunoprecipitation was chosen because Hsp70 is a major cytosolic chaperone protein and it is co-immunoprecipitated with a number of other proteins under non-denaturingconditions (Beckmann, et al., 1990; Zhou, et al., 1995). […] This may be due to a low constitutive level of expression of Hsp73 (Hsp70) in HepG2 cells similar to that reported for other cell types in the absence of stress (Welch, et al., 1984). Treatment with ALLN was associated with a marked increase in Hsp70 level, which was further confirmed as Hsp72 (the inducible form) by Western blot (data not shown).
# Hsp27 = assay: Immunoprecipitation of Hsp27 from radiolabeled HepG2 cells; assay type: cell-based, human; conditions: HepG2, ALLN 4 hours
# Method: as §1, §2
# albumin = assay: Immunoprecipitation of albumin from radiolabeled HepG2 cells; assay type: cell-based, human; conditions: HepG2, ALLN 4 hours
# Method: as §1, §2
smiles,measurement,setting,value
"CCCC[C@@H](C=O)NC(=O)[C@H](CC(C)C)NC(=O)[C@H](CC(C)C)NC(C)=O [ALLN, N-acetyl-leucyl-leucyl-norleucinal] (Ac-Leu-Leu-[Nle]-aldehyde)",Effect on Hsp60,Hsp60,no effects
same,Increment of Hsp70 level,Hsp70,35 fold
same,Effect on Hsp27,Hsp27,no effects
same,Effect on albumin,albumin,no effects
